Measurements reported in patent US7476673B2, “Disubstituted chalcone oximes as selective agonists of RARγ retinoid receptors” (Allergan, Inc., priority 2003, dated 2009).

Key:
RARβ [1] = target: T1, RARβ (Homo sapiens, UniProt P10826); assay: ligand binding assay, RARβ; details: results expressed in Ki numbers, read-out: RAR Binding β
T1 sequence (P10826 1-455): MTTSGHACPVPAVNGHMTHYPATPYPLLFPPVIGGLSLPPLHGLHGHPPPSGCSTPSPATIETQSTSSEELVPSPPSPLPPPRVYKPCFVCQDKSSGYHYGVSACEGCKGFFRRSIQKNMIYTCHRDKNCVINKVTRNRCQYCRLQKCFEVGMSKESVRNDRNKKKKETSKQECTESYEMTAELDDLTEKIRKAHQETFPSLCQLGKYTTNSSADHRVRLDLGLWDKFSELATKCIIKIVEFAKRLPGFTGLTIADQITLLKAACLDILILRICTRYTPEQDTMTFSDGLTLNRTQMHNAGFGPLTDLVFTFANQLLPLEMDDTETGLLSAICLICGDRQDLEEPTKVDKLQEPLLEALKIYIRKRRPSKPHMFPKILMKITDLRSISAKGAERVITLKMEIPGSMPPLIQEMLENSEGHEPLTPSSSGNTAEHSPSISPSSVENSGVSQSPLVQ
Excerpt: (§1) A holoreceptor transactivation assay and a ligand binding assay which measure the antagonist/agonist like activity of the compounds of the invention, or their ability to bind to the several retinoid receptor subtypes, respectively, are described in published PCT Application No. WO WO93/11755 (particularly on pages 30-33 and 37-41) published on Jun. 24, 1993, the specification of which is also incorporated herein by reference. A detailed experimental procedure for holoreceptor transactivations has been described by Heyman et al. Cell 68, 397-406, (1992); Allegretto et al. J. Biol. Chem. 268, 26625-26633, and Mangelsdorf et al. The Retinoids: Biology, Chemistry and Medicine, pp 319-349, Raven Press Ltd., New York, which are expressly incorporated herein by reference. The results obtained in this assay are expressed in EC50 numbers, as they are also in the chimeric receptor transactivation assay. The results of the ligand binding assay are expressed in Ki numbers. (See Cheng et al. Biochemical Pharmacology Vol. 22 pp 3099-3108, expressly incorporated herein by reference.)
(§2) Table 1 discloses the activity of certain exemplary compounds of the invention in the above-described chimeric RAR receptor transactivation and binding assays.

RARγ [2] = target: T2, RARγ (Homo sapiens, UniProt P13631); assay: ligand binding assay, RARγ; details: results expressed in Ki numbers, read-out: RAR Binding γ
T2 sequence (P13631 1-454): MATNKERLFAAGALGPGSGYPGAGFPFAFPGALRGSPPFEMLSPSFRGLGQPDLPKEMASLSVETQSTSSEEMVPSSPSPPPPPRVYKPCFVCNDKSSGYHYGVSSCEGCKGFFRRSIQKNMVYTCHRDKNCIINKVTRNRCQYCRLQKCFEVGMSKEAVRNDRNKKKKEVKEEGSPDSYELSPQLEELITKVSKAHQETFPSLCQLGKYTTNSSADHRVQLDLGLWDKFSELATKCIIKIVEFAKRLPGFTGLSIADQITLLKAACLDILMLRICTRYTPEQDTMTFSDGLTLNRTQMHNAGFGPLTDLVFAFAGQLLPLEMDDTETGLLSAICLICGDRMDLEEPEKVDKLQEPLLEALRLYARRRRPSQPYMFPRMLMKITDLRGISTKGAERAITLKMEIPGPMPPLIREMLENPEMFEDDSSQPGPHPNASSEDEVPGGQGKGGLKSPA
Excerpt: as §1, §2

RARα [3] = target: T3, RARα (Homo sapiens, UniProt P10276); assay: chimeric receptor transactivation assay, RARα; assay type: cell-based; details: for EC50: chimeric receptor transactivation, read-out: RAR EC50 α; for % Efficiency α: percentage of maximum compared to standard TTNPB
T3 sequence (P10276 183-417 limits assumed): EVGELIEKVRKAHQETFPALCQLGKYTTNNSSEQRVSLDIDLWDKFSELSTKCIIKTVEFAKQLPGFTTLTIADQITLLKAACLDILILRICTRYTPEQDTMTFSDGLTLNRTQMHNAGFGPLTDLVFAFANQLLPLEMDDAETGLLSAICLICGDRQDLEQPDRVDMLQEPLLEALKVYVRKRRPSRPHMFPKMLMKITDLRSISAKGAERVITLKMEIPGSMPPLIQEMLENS
Experimental: (§3) The compounds of the invention were tested in certain assays for activity as agonists of RAR and RXR retinoid receptors. Specifically, one such assay is a chimeric receptor transactivation assay which tests for agonist-like activity in the RARα, RARβ and RARγ receptor subtypes, and which is based on work published by Feigner P. L. and Holm M. (1989) Focus, 112 is described in detail in U.S. Pat. No. 5,455,265. The specification of U.S. Pat. No. 5,455,265 is hereby expressly incorporated by reference.
as §1
(§4) Efficacy in a transactivation assay is expressed as a percentage of the maximum potency attained by the compound compared to a standard which, in this case, is the compound 4-[(1E)-2-(5,6,7,8-tetrahydro-5,5,8,8-tetramethyl-2-naphthalenyl)-1-propenyl]-benzoic acid. (TTNPB) This standard compound is described in PCT Publication WO 2002077169 A2.
as §2

RARγ [4] = target: T4, RARγ (Homo sapiens, UniProt P13631); assay: chimeric receptor transactivation assay, RARγ; assay type: cell-based; details: for EC50: chimeric receptor transactivation, read-out: RAR EC50 γ; for % Efficiency γ: percentage of maximum compared to standard TTNPB
T4 construct: % Efficiency γ; other: percentage of maximum compared to standard TTNPB
T4 sequence (P13631 185-454 limits assumed): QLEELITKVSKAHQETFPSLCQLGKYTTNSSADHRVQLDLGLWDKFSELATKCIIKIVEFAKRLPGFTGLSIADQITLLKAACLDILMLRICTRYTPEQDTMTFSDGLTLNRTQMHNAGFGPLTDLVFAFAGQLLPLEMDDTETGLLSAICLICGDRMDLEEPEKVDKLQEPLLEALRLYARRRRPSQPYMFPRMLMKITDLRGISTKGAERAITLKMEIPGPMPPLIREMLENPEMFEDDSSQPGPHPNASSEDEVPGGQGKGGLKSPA
Experimental: as §3, §1, §4, §2

RARβ [5] = target: T5, RARβ (Homo sapiens, UniProt P10826); assay: chimeric receptor transactivation assay, RARβ; assay type: cell-based; details: for EC50: chimeric receptor transactivation, read-out: RAR EC50 β; for % Efficiency β: percentage of maximum compared to standard TTNPB
T5 sequence (P10826 183-455 limits assumed): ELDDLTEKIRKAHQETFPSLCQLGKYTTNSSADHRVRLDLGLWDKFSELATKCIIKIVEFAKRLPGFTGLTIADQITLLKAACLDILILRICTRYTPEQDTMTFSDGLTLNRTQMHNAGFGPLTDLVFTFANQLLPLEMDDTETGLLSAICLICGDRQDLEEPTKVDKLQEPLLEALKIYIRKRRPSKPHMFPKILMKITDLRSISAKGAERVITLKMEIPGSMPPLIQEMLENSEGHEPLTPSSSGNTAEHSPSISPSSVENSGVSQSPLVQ
Experimental: as §3, §1, §4, §2

RARα [6] = target: T6, RARα (Homo sapiens, UniProt P10276); assay: ligand binding assay, RARα; details: results expressed in Ki numbers, read-out: RAR Binding α
T6 sequence (P10276 1-462): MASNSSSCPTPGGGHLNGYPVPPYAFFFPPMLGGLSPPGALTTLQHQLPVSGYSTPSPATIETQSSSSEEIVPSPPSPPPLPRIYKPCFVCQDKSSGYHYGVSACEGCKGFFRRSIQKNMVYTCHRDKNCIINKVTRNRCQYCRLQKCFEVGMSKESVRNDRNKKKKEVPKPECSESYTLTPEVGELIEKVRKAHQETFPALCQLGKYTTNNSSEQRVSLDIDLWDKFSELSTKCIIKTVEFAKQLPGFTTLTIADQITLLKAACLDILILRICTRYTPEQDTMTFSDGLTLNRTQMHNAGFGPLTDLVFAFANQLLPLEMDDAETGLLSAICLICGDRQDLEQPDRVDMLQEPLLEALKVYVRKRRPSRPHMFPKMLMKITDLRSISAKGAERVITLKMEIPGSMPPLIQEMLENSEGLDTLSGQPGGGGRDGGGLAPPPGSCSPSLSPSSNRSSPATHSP
Excerpt: as §1, §2

Compound `CC1(C)CCCc2cc(C(C=Cc3ccc(C(=O)O)cc3)=NO)ccc21` [drawing 17] has a Ki (RARβ [1]) of 31 µM, a Ki (RARγ [2]) of 27 µM and an EC50 (RARα [3]) of 12 µM. The “% Efficiency α” value (RARα [3]) was 42%, the EC50 (RARγ [4]) was 0.204 µM and the “% Efficiency γ” value (RARγ [4]) was 65%. The EC50 (RARβ [5]) was 0.173 µM, the “% Efficiency β” value (RARβ [5]) was 60% and the Ki (RARα [6]) was 12 µM.

`CC1(C)CCSc2ccc(C(C=Cc3ccc(C(=O)O)cc3)=NO)cc21` [drawing 18] gave a Ki (RARβ [1]) of 1.08 µM, a Ki (RARγ [2]) of 0.006 µM and an EC50 (RARα [3]) of 0.242 µM. For the same compound, the “% Efficiency α” value (RARα [3]) was 117%, the EC50 (RARγ [4]) was 0.00075 µM and the “% Efficiency γ” value (RARγ [4]) was 88%. For the same compound, the EC50 (RARβ [5]) was 0.079 µM, the “% Efficiency β” value (RARβ [5]) was 87% and the Ki (RARα [6]) was 5 µM.

Work on `CC1(C)CCSc2ccc(C(C=Cc3ccc(C(=O)O)cc3)=NO)cc21` [drawing 20] yielded a Ki (RARβ [1]) of 1.23 µM, a Ki (RARγ [2]) of 0.055 µM and an EC50 (RARα [3]) of over 1 µM. For the same compound, the EC50 (RARγ [4]) was 0.015 µM, the “% Efficiency γ” value (RARγ [4]) was 100% and the EC50 (RARβ [5]) was 0.103 µM. For the same compound, the “% Efficiency β” value (RARβ [5]) was 102% and the Ki (RARα [6]) was 4.5 µM.

In the case of `CC1(C)CC(C)(C)c2cc(C(C=Cc3ccc(C(=O)O)cc3)=NO)ccc2O1` [drawing 24], the Ki (RARβ [1]) is reported as over 10 µM, the Ki (RARγ [2]) is reported as over 10 µM and the EC50 (RARα [3]) is reported as over 10 µM. It also gave an EC50 (RARγ [4]) of over 10 µM, an EC50 (RARβ [5]) of over 10 µM and a Ki (RARα [6]) of over 10 µM.

In the case of `CC1(C)CC(C)(C)c2cc(C(C=Cc3ccc(C(=O)O)cc3)=NO)ccc2O1` [drawing 25], the Ki (RARβ [1]) is reported as 5 µM, the Ki (RARγ [2]) is reported as 10 µM and the EC50 (RARα [3]) is reported as 0.135 µM. The “% Efficiency α” value (RARα [3]) was 60%, the EC50 (RARγ [4]) was 0.057 µM and the “% Efficiency γ” value (RARγ [4]) was 95%. The EC50 (RARβ [5]) was 0.093 µM, the “% Efficiency β” value (RARβ [5]) was 97% and the Ki (RARα [6]) was 5 µM.

`CC1(C)CC(C)(C)c2cc(C(C=Cc3ccc(C(=O)O)cc3)=NO)ccc21` [drawing 30] gave a Ki (RARβ [1]) of 17 µM, a Ki (RARγ [2]) of 0.006 µM and an EC50 (RARα [3]) of 0.148 µM. For the same compound, the “% Efficiency α” value (RARα [3]) was 55%, the EC50 (RARγ [4]) was 0.0002 µM and the “% Efficiency γ” value (RARγ [4]) was 71%. The EC50 (RARβ [5]) was 0.083 µM, the “% Efficiency β” value (RARβ [5]) was 104% and the Ki (RARα [6]) was 7 µM.

Compound `CC1(C)CC(C)(C)c2cc(C(C=Cc3ccc(C(=O)O)cc3)=NO)ccc21` [drawing 31] has a Ki (RARβ [1]) of 11 µM, a Ki (RARγ [2]) of 0.039 µM and an EC50 (RARα [3]) of 0.134 µM. The “% Efficiency α” value (RARα [3]) was 55%, the EC50 (RARγ [4]) was 0.002 µM and the “% Efficiency γ” value (RARγ [4]) was 91%. For the same compound, the EC50 (RARβ [5]) was 0.093 µM, the “% Efficiency β” value (RARβ [5]) was 118% and the Ki (RARα [6]) was 6 µM.

`Cc1cc2c(cc1C(C=Cc1ccc(C(=O)O)cc1)=NO)C(C)(C)CCC2(C)C` [drawing 36] was tested, and the Ki (RARβ [1]) was 17 µM, the Ki (RARγ [2]) was 0.583 µM and the EC50 (RARα [3]) was over 1 µM. The EC50 (RARγ [4]) was 0.023 µM, the “% Efficiency γ” value (RARγ [4]) was 48% and the EC50 (RARβ [5]) was 3.44 µM. The “% Efficiency β” value (RARβ [5]) was 41% and the Ki (RARα [6]) was 8 µM.
